Consider one compound from paper PMC4245125, “Pharmacological and Behavioral Characterization of D-473, an Orally Active Triple Reuptake Inhibitor Targeting Dopamine, Serotonin and Norepinephrine Transporters” (PLoS ONE, 2014).

In one series the target is T1, Alpha1B (Homo sapiens, UniProt P35368).
T1 construct: purchased NIMH PDSP
Description: NIMH PDSP receptor binding, Alpha1B. To be noted: [3H]Prazosin, read-out: % Inhibition of Binding at 10 µM D-473.

Another series deals with D1 (Homo sapiens, UniProt P21728). In words: NIMH PDSP receptor binding, D1.
Sequence of D1 (P21728 whole entry): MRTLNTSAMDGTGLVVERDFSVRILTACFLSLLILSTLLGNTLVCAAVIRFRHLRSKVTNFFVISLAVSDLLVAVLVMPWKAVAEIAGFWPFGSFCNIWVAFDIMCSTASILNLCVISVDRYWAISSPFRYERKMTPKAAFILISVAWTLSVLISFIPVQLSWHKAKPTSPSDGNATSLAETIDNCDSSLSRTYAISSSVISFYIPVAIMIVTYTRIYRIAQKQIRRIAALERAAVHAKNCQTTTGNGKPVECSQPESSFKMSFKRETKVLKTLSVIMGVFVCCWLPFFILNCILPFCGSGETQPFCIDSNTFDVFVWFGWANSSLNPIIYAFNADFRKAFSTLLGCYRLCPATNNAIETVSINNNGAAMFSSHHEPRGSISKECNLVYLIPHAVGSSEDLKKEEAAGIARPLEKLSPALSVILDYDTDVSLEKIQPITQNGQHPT
Another series deals with T2, 5HT5a (Homo sapiens, UniProt P47898).
T2 construct: purchased NIMH PDSP
T2 sequence (P47898 whole entry): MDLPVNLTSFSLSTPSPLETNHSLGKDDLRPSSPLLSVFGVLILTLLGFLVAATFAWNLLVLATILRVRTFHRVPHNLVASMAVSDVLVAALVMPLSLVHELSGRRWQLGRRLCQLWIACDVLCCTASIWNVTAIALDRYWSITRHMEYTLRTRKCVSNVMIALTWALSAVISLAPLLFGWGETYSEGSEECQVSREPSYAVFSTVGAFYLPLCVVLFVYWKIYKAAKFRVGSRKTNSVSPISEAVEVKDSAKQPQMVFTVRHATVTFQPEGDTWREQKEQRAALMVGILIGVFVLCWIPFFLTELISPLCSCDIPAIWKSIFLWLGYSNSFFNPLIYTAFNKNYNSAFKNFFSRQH
Description: NIMH PDSP receptor binding, 5HT5a. To be noted: [3H]LSD, read-out: % Inhibition of Binding at 10 µM D-473.

A further series deals with T3, Alpha1D (Homo sapiens, UniProt P25100).
T3 construct: purchased NIMH PDSP
Description: NIMH PDSP receptor binding, Alpha1D. The conditions noted are these: [3H]Prazosin, read-out: % Inhibition of Binding at 10 µM D-473.

The target of another series is T4, M3 (Homo sapiens, UniProt P20309).
T4 construct: purchased NIMH PDSP
T4 sequence (P20309 whole entry): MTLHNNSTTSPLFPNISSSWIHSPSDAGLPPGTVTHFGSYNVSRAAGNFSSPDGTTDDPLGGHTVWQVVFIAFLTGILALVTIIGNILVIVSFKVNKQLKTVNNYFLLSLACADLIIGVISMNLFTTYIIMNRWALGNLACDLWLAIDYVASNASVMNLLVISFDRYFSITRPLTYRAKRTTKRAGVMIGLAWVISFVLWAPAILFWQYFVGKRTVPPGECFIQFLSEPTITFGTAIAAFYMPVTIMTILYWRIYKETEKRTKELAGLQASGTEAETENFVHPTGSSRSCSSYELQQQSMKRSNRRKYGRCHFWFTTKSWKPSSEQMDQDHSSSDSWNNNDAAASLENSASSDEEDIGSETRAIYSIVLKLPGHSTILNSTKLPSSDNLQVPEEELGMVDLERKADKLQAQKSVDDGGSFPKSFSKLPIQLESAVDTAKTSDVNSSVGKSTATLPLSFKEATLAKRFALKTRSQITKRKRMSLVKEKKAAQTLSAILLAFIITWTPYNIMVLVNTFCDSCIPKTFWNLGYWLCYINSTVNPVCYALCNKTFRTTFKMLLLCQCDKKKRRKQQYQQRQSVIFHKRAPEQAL
Description: biochemical. To be noted: read-out: % Inhibition of Binding at 10 µM D-473.

For the next series, the target named is T5, D3 (Homo sapiens, UniProt P35462).
T5 construct: purchased NIMH PDSP
T5 sequence (P35462 whole entry): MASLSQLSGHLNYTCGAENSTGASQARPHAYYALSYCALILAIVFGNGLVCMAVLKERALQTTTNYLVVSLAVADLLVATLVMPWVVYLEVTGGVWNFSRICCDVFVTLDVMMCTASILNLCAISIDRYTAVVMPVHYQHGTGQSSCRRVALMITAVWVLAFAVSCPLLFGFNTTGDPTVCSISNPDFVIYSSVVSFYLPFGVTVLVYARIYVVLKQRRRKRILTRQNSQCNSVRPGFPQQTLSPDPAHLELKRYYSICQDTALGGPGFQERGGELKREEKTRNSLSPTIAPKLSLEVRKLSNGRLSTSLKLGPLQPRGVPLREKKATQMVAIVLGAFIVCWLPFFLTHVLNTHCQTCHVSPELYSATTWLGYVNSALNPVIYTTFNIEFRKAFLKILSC
Description: NIMH PDSP receptor binding, D3. The conditions noted are these: [3H]N-methylspiperone, read-out: % Inhibition of Binding at 10 µM D-473.

Another series has as its target T6, H1 (Homo sapiens, UniProt P35367).
T6 construct: purchased NIMH PDSP
Description: NIMH PDSP receptor binding, H1. The conditions noted are these: [3H]Pyrilamine, read-out: % Inhibition of Binding at 10 µM D-473.

A further series has as its target T7, D2 (Homo sapiens, UniProt P14416).
T7 construct: purchased NIMH PDSP
In words: NIMH PDSP receptor binding, D2. The conditions noted are these: [3H]N-methylspiperone, read-out: % Inhibition of Binding at 10 µM D-473.

In the next series the target is T8, 5HT7 (Homo sapiens, UniProt P34969).
T8 construct: purchased NIMH PDSP
T8 sequence (P34969 whole entry): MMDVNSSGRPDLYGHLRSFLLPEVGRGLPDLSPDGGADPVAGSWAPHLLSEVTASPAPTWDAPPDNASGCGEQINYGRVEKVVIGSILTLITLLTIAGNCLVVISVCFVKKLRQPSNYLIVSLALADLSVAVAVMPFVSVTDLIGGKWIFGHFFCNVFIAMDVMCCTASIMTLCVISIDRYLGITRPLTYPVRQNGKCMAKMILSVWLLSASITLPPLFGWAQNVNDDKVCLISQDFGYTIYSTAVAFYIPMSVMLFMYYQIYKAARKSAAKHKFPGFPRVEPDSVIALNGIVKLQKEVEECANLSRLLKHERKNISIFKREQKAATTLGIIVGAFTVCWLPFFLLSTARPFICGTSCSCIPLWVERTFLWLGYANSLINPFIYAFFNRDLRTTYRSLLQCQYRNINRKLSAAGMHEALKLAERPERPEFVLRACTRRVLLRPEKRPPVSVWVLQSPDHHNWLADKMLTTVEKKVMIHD
Description: NIMH PDSP receptor binding, 5HT7. To be noted: [3H]LSD, read-out: % Inhibition of Binding at 10 µM D-473.

For another series, the target named is 5HT2b (Homo sapiens, UniProt P41595). Description: NIMH PDSP receptor binding, 5HT2b. To be noted: [3H]LSD.
Sequence of 5HT2b (P41595 whole entry): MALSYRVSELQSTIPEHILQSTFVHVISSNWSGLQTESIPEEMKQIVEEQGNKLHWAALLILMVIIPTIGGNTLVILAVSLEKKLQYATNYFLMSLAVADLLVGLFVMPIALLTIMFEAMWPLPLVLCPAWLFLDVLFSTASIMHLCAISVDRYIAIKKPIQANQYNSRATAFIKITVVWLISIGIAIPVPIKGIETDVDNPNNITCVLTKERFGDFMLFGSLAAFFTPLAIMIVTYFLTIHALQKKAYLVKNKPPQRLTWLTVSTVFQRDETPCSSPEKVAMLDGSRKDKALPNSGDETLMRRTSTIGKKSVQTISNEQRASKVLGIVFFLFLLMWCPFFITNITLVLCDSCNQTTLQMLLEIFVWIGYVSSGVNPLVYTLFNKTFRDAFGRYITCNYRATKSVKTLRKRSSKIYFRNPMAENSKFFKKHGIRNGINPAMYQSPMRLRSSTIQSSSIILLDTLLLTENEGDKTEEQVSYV
For a further series, the system named is BZP Rat Brain Site. Description: NIMH PDSP receptor binding, BZP Rat Brain Site. The conditions noted are these: 3H-Flunitrazepam.
In a further series the target is D5 (Homo sapiens, UniProt P21918). Description: NIMH PDSP receptor binding, D5.
Sequence of D5 (P21918 whole entry): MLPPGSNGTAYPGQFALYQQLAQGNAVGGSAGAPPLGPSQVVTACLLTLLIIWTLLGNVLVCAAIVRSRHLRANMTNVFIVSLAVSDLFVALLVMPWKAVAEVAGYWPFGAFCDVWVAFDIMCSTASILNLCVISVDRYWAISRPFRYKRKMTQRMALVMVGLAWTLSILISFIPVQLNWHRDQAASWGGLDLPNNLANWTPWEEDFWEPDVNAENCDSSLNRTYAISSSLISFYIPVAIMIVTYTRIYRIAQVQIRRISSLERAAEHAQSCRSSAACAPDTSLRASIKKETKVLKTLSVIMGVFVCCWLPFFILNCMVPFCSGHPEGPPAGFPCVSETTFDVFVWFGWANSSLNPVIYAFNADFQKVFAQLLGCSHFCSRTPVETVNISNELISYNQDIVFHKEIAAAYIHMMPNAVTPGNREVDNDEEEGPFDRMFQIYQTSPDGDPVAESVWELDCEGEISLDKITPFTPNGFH
The target in the next series is T9, 5HT1a (Homo sapiens, UniProt P08908).
T9 construct: purchased NIMH PDSP
In words: NIMH PDSP receptor binding, 5HT1a. The conditions noted are these: [3H]8-OH-DPAT, read-out: % Inhibition of Binding at 10 µM D-473.

A further series addresses T10, H2 (Homo sapiens, UniProt P25021).
T10 construct: NIMH PDSP
In words: NIMH PDSP receptor binding, H2. The conditions noted are these: [3H]Tiotodine.

Series [1] can be described thus: Plasma concentration after oral administration in rats. It is filed as in vivo. The conditions noted are these: rat, male Sprague-Dawley rats, 25 mg/kg PO. Here is the method:
Sample preparation: Following oral administration of 25 mg/kg of D-473 and D-142 in male Sprague Dawley rats, the blood samples were collected at different time points over a period of 8 h for analysis. Concentrations of D-473 and D-142 in plasma were quantitated using a set of calibration standards prepared in blank matrix that were processed in parallel. Plasma concentration evaluation was carried out by the CRO, Absorption System, PA. Additionally, brain uptake studies of D-473 were carried out at three different time points (2, 4 and 6 h) following oral administration of 25 mg/kg D-473. Concentrations of D-473 in rat brain were quantitated using a set of calibration standards which were prepared in blank brain homogenate matrix on the day of analysis. The standard samples (5, 10, 25, 100, 500, 1000, and 2000 ng/mL) for calibration curve were prepared by spiking 45 µL of blank rat plasma with 5 µL of appropriate working dilution of D-473 in acetonitrile. The bioanalytical sample preparation for brain and plasma analysis followed by quantification of test compounds entailed the addition of 250 µL acetonitrile to every 50 µL of standard and analyte samples to precipitate tissue plasma proteins and tissue macromolecules. These mixtures were then vortexed for 15 min at 1400 rpm. The suspensions were then clarified by centrifugation (18000 g, 10 min at 4°C), and each 150 µL of the resulting supernatant was mixed well with 50 µL 0.1% formic acid in 50/50 (v/v) ACN/water solution for about 10 sec. The mixtures were again centrifuged (18000 g, 10 min at 4°C) before 100 µL of clear supernatant were transferred to auto sampler vials for LC-MS/MS analysis.
The analysis of blood sample was carried out by the CRO Absorption system, PA. Briefly, the analysis was carried out by Waters Acquity UPLC equipped with PE Sciex API4000 mass spectrometer. Reverse phase Waters Acquity BEH Phenyl Column 1.7micron, 2.1×30 mm column was used for analysis. 5 µL of sample solutions were injected with a flow rate 1 mL/min and the samples were eluted with gradient elution using solvent A (10% buffer: 90% water) and solvent B (10% buffer: 90% acetonitrile). Buffer used was 40 mM Ammonium Formate Buffer, pH 3.5. Pharmacokinetic prarameters were estimated by a non-compartmental model using WinNonlin v5.2.1 software.

In a further series the target is T11, 5HT2c (Homo sapiens, UniProt P28335).
T11 construct: purchased NIMH PDSP
T11 sequence (P28335 33-458): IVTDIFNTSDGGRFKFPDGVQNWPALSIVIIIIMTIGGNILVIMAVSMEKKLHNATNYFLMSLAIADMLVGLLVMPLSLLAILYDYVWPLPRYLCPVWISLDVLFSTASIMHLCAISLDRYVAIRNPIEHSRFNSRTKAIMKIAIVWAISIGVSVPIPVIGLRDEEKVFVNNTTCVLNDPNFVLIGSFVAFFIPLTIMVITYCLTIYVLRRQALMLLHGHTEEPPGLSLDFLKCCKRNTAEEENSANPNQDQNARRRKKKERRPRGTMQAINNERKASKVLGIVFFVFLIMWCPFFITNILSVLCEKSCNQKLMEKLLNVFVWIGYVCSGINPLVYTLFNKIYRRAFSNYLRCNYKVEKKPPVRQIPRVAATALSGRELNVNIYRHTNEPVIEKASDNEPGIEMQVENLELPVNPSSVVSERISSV
Description: NIMH PDSP receptor binding, 5HT2c. To be noted: [3H]Mesulergine, read-out: % Inhibition of Binding at 10 µM D-473.

Another series concerns the target T12, κ-opioid (Homo sapiens, UniProt P41145).
T12 construct: purchased NIMH PDSP
In words: NIMH PDSP receptor binding, κ-opioid. The conditions noted are these: [3H]Bremazocine, read-out: % Inhibition of Binding at 10 µM D-473.

The mark [2] stands for this setting: [3H]SCH 23390, 10 µM, read-out: % Inhibition of Binding at 10 µM D-473.
[3] abbreviates: [3H]SCH 23390, secondary assay, read-out: Ki for D-473.
[4] abbreviates: 10 µM, read-out: % Inhibition of Binding at 10 µM D-473.
[5] abbreviates: secondary assay, read-out: Ki for D-473.

As usually defined, the inhibition is the percentage by which the read-out fell short of the control. The term Ki denotes the equilibrium dissociation constant of an inhibitor or competing ligand from its target. A word on the half-life: it is how long it takes for the measured level to halve.

T10 sequence (P25021 whole entry): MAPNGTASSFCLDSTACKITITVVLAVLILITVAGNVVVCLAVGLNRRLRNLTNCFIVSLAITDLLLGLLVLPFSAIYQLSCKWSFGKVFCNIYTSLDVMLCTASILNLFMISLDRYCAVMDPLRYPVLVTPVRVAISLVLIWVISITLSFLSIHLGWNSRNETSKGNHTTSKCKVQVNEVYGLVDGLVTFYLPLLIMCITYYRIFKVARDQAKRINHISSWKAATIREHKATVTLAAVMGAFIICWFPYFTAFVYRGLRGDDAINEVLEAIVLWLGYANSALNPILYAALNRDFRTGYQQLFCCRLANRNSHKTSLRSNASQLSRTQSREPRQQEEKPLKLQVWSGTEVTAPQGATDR
T12 sequence (P41145 whole entry): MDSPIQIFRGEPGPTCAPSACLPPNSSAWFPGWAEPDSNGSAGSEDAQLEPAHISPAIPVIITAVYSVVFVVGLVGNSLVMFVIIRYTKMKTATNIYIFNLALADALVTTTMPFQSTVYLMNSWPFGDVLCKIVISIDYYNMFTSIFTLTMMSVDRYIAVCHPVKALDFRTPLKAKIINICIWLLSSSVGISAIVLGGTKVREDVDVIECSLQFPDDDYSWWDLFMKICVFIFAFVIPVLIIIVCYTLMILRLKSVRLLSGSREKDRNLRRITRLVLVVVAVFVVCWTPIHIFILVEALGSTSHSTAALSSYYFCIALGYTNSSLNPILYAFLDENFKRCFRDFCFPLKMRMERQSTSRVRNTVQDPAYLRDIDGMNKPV
T1 sequence (P35368 whole entry): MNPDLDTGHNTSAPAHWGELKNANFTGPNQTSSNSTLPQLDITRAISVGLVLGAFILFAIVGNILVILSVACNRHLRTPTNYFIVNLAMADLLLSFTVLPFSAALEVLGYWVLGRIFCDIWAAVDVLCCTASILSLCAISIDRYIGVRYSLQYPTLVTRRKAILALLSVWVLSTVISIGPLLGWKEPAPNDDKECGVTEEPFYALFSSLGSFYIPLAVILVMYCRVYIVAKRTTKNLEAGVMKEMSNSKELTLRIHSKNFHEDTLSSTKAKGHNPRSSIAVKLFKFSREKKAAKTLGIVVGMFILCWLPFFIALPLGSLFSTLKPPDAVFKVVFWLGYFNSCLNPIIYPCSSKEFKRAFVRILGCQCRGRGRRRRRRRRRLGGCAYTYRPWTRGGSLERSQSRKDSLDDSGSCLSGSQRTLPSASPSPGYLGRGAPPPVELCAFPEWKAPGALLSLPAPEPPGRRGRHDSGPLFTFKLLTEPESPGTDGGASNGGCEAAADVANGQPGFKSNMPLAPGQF

With `COc1ccc(CN[C@@H]2CO[C@H](C(c3ccc(F)cc3)c3ccc(F)cc3)C[C@H]2O)cc1` [Compound D-473, (2S,4R,5R)-2-(bis(4-fluorophenyl)methyl)-5-((4-methoxybenzyl)amino)tetrahydro-2H-pyran-4-ol], the inhibition at 10 µM stood at 16.6% on Alpha1B; 62.2% on D1 (setting [2]); 19.5% on 5HT5a; 41.8% at Alpha1D; 6.9% at M3; 30.8% on D3. Besides, the inhibition at 10 µM on H1 was found to be 2.8%; on D2 it was 42.9%; at 5HT7, 41.4%; at 5HT2b (setting [4]), 70.8%; on D5 (setting [2]), 74.7%; at 5HT1a it was 35.4%. Moreover, the results for the inhibition at 10 µM on H2 (setting [4]), at 5HT2c and on κ-opioid were 70.1%, 45.4% and 48.5%, respectively. The inhibition constant (Ki) was determined as 630 nM on D1 (setting [3]), 597 nM on 5HT2b (setting [5]), 1570 nM on D5 (setting [3]) and 141 nM on H2 (setting [5]). The “% Inhibition of Binding at 10 µM D-473” value with BZP Rat Brain Site is given as −3%. Besides, the Cmax in series [1] (3% HPßCD in water, read-out: Average maximum plasma concentration, Cmax) is 404 ± 223 ng/mL. Also, the half-life in [1] (read-out: Estimated average half-life (converted)) was 383 ± 6.36 min.
